Key:
[1] = test system: pUC18 circular plasmid DNA; assay: DNA binding by agarose gel electrophoresis (migration shift of plasmid); details: for DNA binding: 10:1 metal complex:DNA base pair, with and without O2
Excerpt: (§1) FIG. 6. DNA binding and photocleavage by [{(bpy)2Ru(dpp)}2Ru(dpp)PtCl2](PF6)6 (Ru3Pt) assayed with 0.8% agarose gel electrophoresis post stained with ethidium bromide using circular plasmid pUC18 DNA with comparison to cis-[Pt(NH3)2Cl2] (Cisplatin) and [{(bpy)2Ru(dpp)}2Ru(dpp)](PF6)6 (Ru3) (bpy=2,2′-bipyridine, dpp=2,3-bis(2-pyridyl)pyrazine). Lanes λ are the molecular weight standards (23, 9.4, 6.6, 4.4, 2.3, and 2.0 kb), lanes C are the DNA controls showing mostly form I and minor form II pUC18 DNA. The cisplatin lane 1 is a 5:1 base pair (BP):metal complex (MC) and lane 2 a 20:1 BP:MC incubated for 1 hour at 37° C. The Ru3 lane 1 is a 20:1 BP:MC incubated for 1 hour at 37° C. The Ru3Pt lane 1 is 20:1 BP:MC kept in the dark at room temperature, lane 2 is 20:1 BP:MC incubated for 1 hour in the dark at 37° C., lane 3 is 20:1 BP:MC photolyzed with 450 nm-1000 nm light for 1 hour under atmospheric conditions, lane 4 is 20:1 BP:MC photolyzed with 450 nm-1000 nm light for 1 hour under argon.
(§2) FIG. 9. DNA binding and photocleavage by [{(bpy)2Ru(dpp)}2Ru(dpq)PtCl2](PF6)6. Lane 1 is the molecular weight standard, lane C is the pUC18 DNA plasmid control, lane 25° is 10:1 metal complex:DNA base pair incubated at 25° C., lane 37° is the 10:1 ratio incubated at 37° C., Ar* is the 10:1 ratio photolyzed for 1 hour under Ar, lane O2* is the 10:1 ratio photolyzed under ambient atmosphere.
as §2, with “10.” for “9.”, “[{(bpy)2Os(dpp)}2Ru(dpq)PtCl2](PF6)6.” for “[{(bpy)2Ru(dpp)}2Ru(dpq)PtCl2](PF6)6.”
(§3) The DNA binding and photocleavage ability of the exemplary complex, [{(bpy)2Ru(dpp)}2Ru(dpp)PtCl2](PF6)6, has been investigated using gel electrophoresis. The cis-dichloroplatinum(II) moiety is designed to allow the complex to bind covalently to DNA. The Ru polyazine units are designed to allow the complex to undergo sensitization of molecular oxygen leading to DNA photocleavage. The presence of the cis-dichloroplatinum(II) sub-unit delivers the Ru polyazine sub-unit to its target prior to optical excitation. DNA interactions of [{(bpy)2Ru(dpp)}2Ru(dpp)PtCl2](PF6)6 were compared to a binding analyses of Ru3 and cisplatin using gel electrophoresis and pUC18 circular plasmid DNA, (2686 BP, Bayou Biolabs) post-stained with ethidium bromide. Lanes λ are the molecular weight standards (23, 9.4, 6.6, 4.4, 2.3, and 2.0 kb). Lanes C are the pUC18 DNA controls, showing primarily the supercoiled (form I) and minor nicked (form II) forms of the circular pUC18 plasmid. The lane 1 for cisplatin is a 5:1 base pairs (BP):metal complex (MC) and lane 2 is a 20:1 BP:MC solution incubated at 37° C. for 1 hr. […] Lane 1 of “Ru3Pt” is the 20:1 DNA BP: MC solution of [{(bpy)2Ru(dpp)}2Ru(dpp)PtCl2](PF6)6 incubated at 37° C. for 1 hr. […] Lane 4 is a 20:1 BP:MC solution photolyzed at λ>450 nm for 1 hour, under argon.
A mixed-metal complex, [{(bpy)2Ru(dpp)}2Ru(dpq)PtCl2](PF6)6, was synthesized using bridging ligands dpq (2,3-bis(2-pyridyl)quinoxaline), and dpp (the ligand described in Example 1). The complex was tested for its ability to bind DNA and to photocleave the DNA in an O2 dependent manner by incubating the complex with DNA in the ambient atmosphere and under argon. […]

[2] = test system: pUC18 circular plasmid DNA; assay: DNA photocleavage by agarose gel electrophoresis (form I to form II conversion) after visible light photolysis; assay type: biochemical; details: for DNA photocleavage: 10:1 ratio; for DNA photocleavage (supercoiled form I to nicked form II): 20:1 BP:MC
Excerpt: as §1, §2
as §2, with “10.” for “9.”, “[{(bpy)2Os(dpp)}2Ru(dpq)PtCl2](PF6)6.” for “[{(bpy)2Ru(dpp)}2Ru(dpq)PtCl2](PF6)6.”
as §3
A mixed-metal complex, [{(bpy)2Ru(dpp)}2Ru(dpq)PtCl2](PF6)6, was synthesized using bridging ligands dpq (2,3-bis(2-pyridyl)quinoxaline), and dpp (the ligand described in Example 1). The complex was tested for its ability to bind DNA and to photocleave the DNA in an O2 dependent manner by incubating the complex with DNA in the ambient atmosphere and under argon. […] This illustrates the metal complex binds to DNA and photocleaves DNA in a oxygen dependent manner.
A mixed-metal complex, [{(bpy)2Os(dpp)}2Ru(dpq)PtCl2](PF6)6, was synthesized using bridging ligands dpq (2,3-bis(2-pyridyl)quinoxaline), and dpp (as described in Example 3) but using osmium as a light absorbing metal component. […] This illustrates this metal complex also binds to DNA and photocleaves DNA in a oxygen dependent manner.

[3] = photolyzed under ambient atmosphere (O2)

Substance | DNA binding [1] | DNA photocleavage ([2]; photolyzed for 1 hour under Ar) | DNA photocleavage [2, 3] | further results
[{(bpy)2Os(dpp)}2Ru(dpq)PtCl2](PF6)6 | effective in binding to DNA | not in the absence of O2 | cleaved only when O2 was present | –
[{(bpy)2Ru(dpp)}2Ru(dpp)PtCl2](PF6)6 [Ru3Pt] | – | – | – | DNA binding (migration of pUC18 through the gel) ([1]; Ru3Pt lane 1, 20:1 BP:MC, b60 prints incubated at 37° C. for 1 hr, FIG. 6 legend prints kept in the dark at room temperature): decreased migration of the form I pUC18 through the gel; DNA photocleavage (supercoiled form I to nicked form II) ([2]; photolyzed λ>450 nm for 1 hour, under argon): no DNA photocleavage is observed; DNA photocleavage (supercoiled form I to nicked form II) ([2]; photolyzed λirr>450 nm for 1 hour, under atmospheric conditions): appreciable conversion of the supercoiled (form 1) to nicked (form II) DNA
[{(bpy)2Ru(dpp)}2Ru(dpp)](PF6)6 [Ru3, reference compound] | – | – | – | DNA binding (migration of pUC18 through the gel) ([1]; 20:1 BP:MC, incubated at 37° C. for 1 hr): migration of the DNA is not impacted
[{(bpy)2Ru(dpp)}2Ru(dpq)PtCl2](PF6)6 | effective in binding to DNA | not in the absence of O2 | cleaved only when O2 was present | –
cis-[Pt(NH3)2Cl2] [cisplatin, reference compound] | – | – | – | DNA binding (migration of pUC18 through the gel) ([1]; 5:1 and 20:1 BP:MC, incubated at 37° C. for 1 hr): migration of form I of the pUC18 is retarded

Source: patent US8148360B2, “Supramolecular metallic complexes exhibiting both DNA binding and photocleavage” (Virginia Tech Intellectual Properties, Inc., priority 2006, dated 2012)
